In ChEMBL document CHEMBL5614461, “Design, synthesis and biological evaluation of indazole derivatives as VEGFR-2 kinase inhibitors with anti-angiogenic properties” (Eur J Med Chem, 2024):

How the values were obtained:
[1] = in vivo; conditions: male, Sprague-Dawley, rat, iv, 1 mg/kg
[2] = in vivo; conditions: male, Sprague-Dawley, rat, iv, 1 mg/kg; remark: listed apart in the source
[3] = in vivo; conditions: male, Sprague-Dawley, rat, po, 10 mg/kg
[4] = in vivo; conditions: male, Sprague-Dawley, rat, iv, 1 mg/kg; remark: listed apart in the source
[5] = in vivo; conditions: male, Sprague-Dawley, rat, po, 10 mg/kg; remark: listed apart in the source
[6] = in vivo; conditions: male, Sprague-Dawley, rat, po, 10 mg/kg; remark: listed apart in the source
[7] = in vivo; conditions: male, Sprague-Dawley, rat, po, 10 mg/kg; remark: listed apart in the source
[8] = in vivo; conditions: male, Sprague-Dawley, rat, iv, 1 mg/kg; remark: listed apart in the source

## O=C(Cc1ccccc1F)Nc1cccc(Sc2ccc3c(/C=C/c4ccccn4)n[nH]c3c2)c1
[1]
  Cmax at 24 h: 1470 ng/mL
[2]
  MRT last at 24 h: 1.62 h
[3]
  Tmax at 24 h: 1.67 h
[4]
  Tmax at 24 h: 1.8 min
[5]
  MRT last at 24 h: 2.73 h
[6]
  Cmax at 24 h: 484 ng/mL
[7]
  AUC(0-t) at 24 h: 1670 ng·h/mL
[8]
  AUC(0-t) at 24 h: 1590 ng·h/mL
